The values that follow come from US6130053A, “Method for selecting compounds for inhibition of neoplastic lesions” (priority 1999, dated 2000).

Series [1] has as its system premalignant lesions in mammary gland organ culture. The series is described as follows: Inhibition of premalignant lesions in mammary gland organ culture. The format is cell-based, mouse. The conditions noted are these: FIG. 17.
Experimental: Test compounds identified by the above methods can be tested for antineoplastic activity by their ability to inhibit the incidence of preneoplastic lesions in a mammary gland organ culture system.
For example, female BALB/c mice can be treated with a combination of estradiol and progesterone daily, in order to prime the glands to be responsive to hormones in vitro. The animals are sacrificed and thoracic mammary glands are excised aseptically and incubated for ten days in growth media supplemented with insulin, prolactin, hydrocortisone, and aldosterone. DMBA (7,12-dimethylbenz(a)anthracene) is added to medium to induce the formation of premalignant lesions. Fully developed glands are then deprived of prolactin, hydrocortisone, and aldosterone, resulting in the regression of the glands but not the premalignant lesions.
The test compound is dissolved in DMSO and added to the culture media for the duration of the culture period. At the end of the culture period, the glands are fixed in 10% formalin, stained with alum carmine, and mounted on glass slides. […]
The extent of the area occupied by the mammary lesions can be quantitated by projecting an image of the gland onto a digitation pad. […] The space covered by each of the unregressed structures is also outlined on the digitization pad and quantitated by the computer.
Series [2] concerns SW-480 colon adenocarcinoma cells. Nature of the series: Apoptosis inducing activity, fold induction (fold stimulation, DNA fragmentation ELISA). The conditions noted are these: for fold induction at 100 µM: Homo sapiens, SW480, read-out: Fold induction of apoptosis at 100 μM, 100 μM.
The test system of series [3] is PDE peak B (novel cGMP-specific phosphodiesterase). The series is described as follows: Inhibition of cGMP hydrolysis by PDE peak B (novel cGMP-specific PDE) from SW480 cells. The conditions noted are these: for Km: absence of cAMP. The format is biochemical, human.
The target in another series is T1, PDE peak A (PDE5) (Homo sapiens, UniProt O76074).
T1 construct: approximately four hundred million SW480 cells at confluence were scraped; endogenous in cells; host or cells: SW480 human colon adenocarcinoma cells (DEAE-Trisacryl M fraction)
The series is described as follows: Inhibition of cGMP hydrolysis by PDE peak A from SW480 cells. Type of series: biochemical.

In a further series the test system is cGMP PDE. Nature of the series: cGMP PDE inhibition assay, enzyme purified from HT-29 cultured tumor cells. Type of series: biochemical, human.
The target in series [4] is T2, COX-I (purified cyclooxygenase Type 1) (Ovis aries, UniProt P05979).
T2 construct: purified cyclooxygenase from ram seminal vesicles; from tissue; host or cells: ram seminal vesicles
T2 sequence (P05979 25-600): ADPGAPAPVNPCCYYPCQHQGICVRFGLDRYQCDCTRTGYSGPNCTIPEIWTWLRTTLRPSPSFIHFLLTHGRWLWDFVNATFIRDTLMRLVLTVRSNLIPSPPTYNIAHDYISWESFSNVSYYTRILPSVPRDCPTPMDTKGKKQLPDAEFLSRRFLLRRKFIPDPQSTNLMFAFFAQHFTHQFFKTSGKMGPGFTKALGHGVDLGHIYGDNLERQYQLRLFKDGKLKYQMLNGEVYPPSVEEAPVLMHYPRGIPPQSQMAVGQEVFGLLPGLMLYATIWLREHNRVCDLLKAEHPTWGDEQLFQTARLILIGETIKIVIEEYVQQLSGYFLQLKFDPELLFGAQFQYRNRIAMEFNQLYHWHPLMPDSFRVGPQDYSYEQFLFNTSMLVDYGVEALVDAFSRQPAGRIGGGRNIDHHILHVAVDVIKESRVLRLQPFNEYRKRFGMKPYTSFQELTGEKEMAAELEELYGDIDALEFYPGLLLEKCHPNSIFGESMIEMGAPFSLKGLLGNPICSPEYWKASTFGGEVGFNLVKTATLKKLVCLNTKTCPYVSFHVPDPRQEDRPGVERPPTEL
Nature of the series: COX inhibition assay, purified cyclooxygenase (Type 1). The format is biochemical, ram. The conditions noted are these: for COX-I inhibition: FIG. 5.

The test system of series [5] is [H][C@@]12COP(=O)(O)O[C@@]1([H])[C@@H](O)[C@H](n1cnc3c(=O)[nH]c(N)nc31)O2. Nature of the series: purified protein, by the assay type. The conditions noted are these: 30.0 °C.
A further series has as its system HT-29 cells. Nature of the series: Growth inhibition of HT-29 cells. Type of series: cell-based, human.
The test system of series [6] is PDE peak B (novel cGMP-specific phosphodiesterase). The conditions noted are these: cited from earlier work.
Another series deals with native bovine PDE5. The conditions noted are these: read-out: Kd (cGMP binding, native bovine PDE5); cited from earlier work.
The next series relates to HT-29 cells (cAMP level). Nature of the series: cAMP production in cultured HT-29 cells (radioimmunoassay). Type of series: cell-based, human. The conditions noted are these: 30 minutes.
[7] abbreviates: Homo sapiens, HT-29; read-out: Growth % Inhibition at 100 μM.

“Also recorded” adds a separate entry of the source. Like-named read-outs stand apart in the source and are kept apart here.

Experimental for cGMP PDE: The mixture is incubated at 30° C. for 10 minutes with isolated PDE of this invention. Reactions are terminated, for example, by boiling the reaction mixture for 75 seconds. After cooling on ice, 100 μl of 0.5 mg/ml snake venom (O. Hannah venom available from Sigma) is added and incubated for 10 minutes at 30° C. This reaction is then terminated by the addition of an alcohol, e.g. 1 ml of 100% methanol. Assay samples are applied to 1 ml Dowex 1-X8 column; and washed with 1 ml of 100% methanol. The amount of radioactivity in the breakthrough and the wash from the column is combined and measured with a scintillation counter. The degree of phosphodiesterase inhibition is determined by calculating the amount of radioactivity in drug-treated reactions and comparing against a control sample (a reaction mixture lacking the tested compound but with drug solvent).

For the compound `CC1=C(CC(=O)O)c2cc(F)ccc2/C1=C\c1ccc([S+](C)[O-])cc1` (stereo not shown) [sulindac], in series [1], the “inhibition of premalignant lesions” value is “effectively inhibit the formation of premalignant lesions”.
Turning to `CCCCCC[C@H]([C@H](C)O)n1cnc2c(N)ncnc21` (relative stereo) [EHNA], the fold induction at 100 µM in series [2] is under 2. Besides, the IC50 in series [3] (cGMP hydrolysis, 0.25 μM 3H-cGMP) is 3.7 µM; on PDE peak A (PDE5), over 100 µM.
For the compound `COc1cc(/C=C2/C(C)=C(CC(=O)O)c3cc(F)ccc32)cc(OC)c1OC` [B, (Z)-5-Fluoro-2-methyl-1-(3,4,5-trimethoxybenzylidene)-3-acetic acid], the “cGMP PDE % Inhibition at 10 μM” value in the series on cGMP PDE is listed as under 25%. In addition, in the series on cGMP PDE (20 μM, FIG. 8), the “cGMP PDE inhibition at 20 μM” value is “greater than 50%”. In addition, in series [2], the fold induction at 100 µM was 3.4. In addition, the “COX-I inhibition” value in [4] was “neither test compound B and E significantly inhibit COX-I”.
As for PDE peak A (PDE5) (Homo sapiens), in series [5], the Km stood at 1.07 µM and the Vmax was determined as 0.16 nmol/min/mg.
`CC1(C)C(=O)Nc2ccc(C3=NNC(=O)CC3)cc21` [Indolidan]: the “sensitivity of peak B / novel PDE to inhibitor” value in [3] was “insensitive”.
Regarding `CC1=C(CC(=O)O)c2cc(F)ccc2/C1=C\c1ccc(Cl)cc1` [Compound C, (Z)-5-Fluoro-2-methyl-1-(p-chlorobenzylidene)-3-acetic acid], the “cGMP PDE % Inhibition at 10 μM” value with cGMP PDE is under 25%. Besides, the inhibition at 100 µM in the series on HT-29 cells (setting [7]) stood at 80%.
With `CCCc1nn(C)c2c(=O)[nH]c(-c3cc(S(=O)(=O)N4CCN(C)CC4)ccc3OCC)nc12` [Sildenafil], the “inhibition of peak A activity” value against PDE peak A (PDE5) is listed as “inhibited activity of peak A”. In [6], the “effect on new cGMP-specific PDE (words, '375 application)” value is on record as “little relative effect”.
The compound `Clc1cccc(Nc2nnc(-c3ccccc3)c3ccccc23)c1` [MY5445, 1-(3-chloroanilino)-4-phenyphthalazine] registered an inhibition at 100 µM in [4] of 94%.
As to `CCN(CC)CCSC12CC(=O)OC1(C)/C(=C/c1ccc(S(C)(=O)=O)cc1)c1ccc(F)cc12` (racemic) [A, rac-threo-(E)-1-(N,N'-diethylaminoethanethio)-1-(butan-1',4'-olido)-[3',4':1,2]-6-fluoro-2-methyl-3-(p-methylsulfonylbenzylidene)-indan], in the series on cGMP PDE, the “cGMP PDE % Inhibition at 10 μM” value was under 25%. In addition, in series [2], the fold induction at 100 µM is under 2. Moreover, the inhibition at 100 µM in the series on HT-29 cells (setting [7]) is 68%; in [4], under 25%.
On to `COc1cc(/C=C2/C(C)=C(CC(=O)NCc3ccccc3)c3cc(F)ccc32)cc(OC)c1OC` [Compound E, (Z)-5-Fluoro-2-methyl-1-(3,4,5-trimethoxybenzylidene)-3-indenylacetamide, N-benzyl], for which, in [2] (neoplastic cells), the “apoptosis-inducing or growth-inhibiting properties” value is listed as “precisely the opposite”. Besides, in series [3], the “mode of inhibition of peak B” value was “competitively inhibited”. In addition, on PDE peak A (PDE5), the “mode of inhibition of peak A” value is given as “competitively inhibited”. In [4], the “COX-I inhibition” value is “neither test compound B and E significantly inhibit COX-I”.
For `O=C(O)C1CCN(c2nc(NCc3ccc4c(c3)OCO4)c3cc(Cl)ccc3n2)CC1` [Compound E4021], in the series with HT-29 cells (Homo sapiens, HT-29, read-out: Growth % Inhibition at 100 μM), the inhibition at 100 µM was under 50%.
Take `Nc1nc2c(ncn2[C@@H]2O[C@@H]3COP(=O)(O)O[C@H]3[C@H]2O)c(=O)[nH]1` [cGMP, cyclic guanosine 3',5'-monophosphate]: the Km was under 1 µM in series [3] (read-out: Km of peak B for cGMP (increasing slope)) and 8.4 µM in series [3] (read-out: apparent Km of peak B for cGMP (first, decreasing part of Eadie-Hofstee plot)). At native bovine PDE5, the Kd was 1.3 µM.
`CC(=O)NC(CSC12CC(=O)OC1(C)/C(=C/c1ccc(S(C)(=O)=O)cc1)c1ccc(F)cc12)C(=O)O` (racemic) [D, rac-(E)-1-(butan-1',4'-olido)-[3',4':1,2]-6-fluoro-2-methyl-3-(p-methylsulfonylbenzylidene)-1S-indanyl-N-acetylcysteine]: the inhibition at 100 µM was 78% in the series on HT-29 cells (setting [7]) and under 25% in series [4].
For the compound `COc1ccc(C2CNC(=O)C2)cc1OC1CCCC1` (stereo not shown) [Rolipram], the “sensitivity of peak B / novel PDE to inhibitor” value in series [3] is “insensitive”. Also, the “effect on cAMP level” value in the series on HT-29 cells (cAMP level) is listed as “increased cAMP”.
On to `CCCOc1ccccc1-c1nc2nn[nH]c2c(=O)[nH]1` [Zaprinast], for which the “sensitivity of peak B / novel PDE to inhibitor” value in [3] was “reduced sensitivity to inhibition; also recorded: zaprinast-insensitive”.
Regarding `CCOC(=O)C1=C[C@]2(CC)CCCN3CCc4c(n1c1ccccc41)[C@@H]32` [Vinpocetine], the “sensitivity of peak B / novel PDE to inhibitor” value in [3] is recorded as “insensitive”.
